Source: patent US11919878B1, “9-(2-hydroxypyridin-3-yl)-10-(2-phenylethyl)-3,3,6,6-tetramethyl-3,4,6,7,9,10-hexahydroacridine1,8(2H,5H)-dione as an antimicrobial compound” (KING FAISAL UNIVERSITY, priority 2023, dated 2024)

How the values were obtained:
Assay in all cases: Antimicrobial screening, agar dilution
Assay type in all cases: cell-based
Conditions in all cases: after 10, 20, 40 and 60 minutes at all dilutions 1:100, 1:200, 1:400, 1:800
Pseudomonas aeruginosa = tested on: Pseudomonas aeruginosa
Experimental: (§1) The antibacterial properties of the synthesized compound compound (9-(2-hydroxypyridin-3-yl)-10-(2-phenylethyl)-3,3,6,6-tetramethyl-3,4,6,7,9,10-hexahydroacridine1,8(2H,5H)-dione) were studied by the method of agar dilution. Test solutions of each compound was prepared in concentration of 1% using dimethylformamide as a solvent then they are diluted in physiological solution to obtain the final experimental dilutions 1:100, 1:200, 1:400, 1:800. The effect of these substances are compared with furacillin in a controllable study. The testing microbes used were gram positive bacteria Staphylococcus aureus, gram negative bacteria Pseudomonas aeruginosa and Escherichia coli and Candida albicans fungus. The experiments used for this survey were meat-pentonlu agar (EPA) for cultivation of bacteria and Saburo enviromnent for the fungus. Each experiment used 1 mL of test solution on each plate […]. Two drops of emulsified with microbes feel were added. All experimental samples were taken from the agar after 10, 20, 40, 60 minutes in the environment on the basis of Patrk planted. The bacteria were cultivated at a temperature: of 37° C for 1 day and the mushroom was kept in a thermostat for […] at a temperature of 28° C. Then results were checked.

Escherichia coli = tested on: Escherichia coli
Experimental: as §1

Staphylococcus aureus = tested on: Staphylococcus aureus
Experimental: as §1

Candida albicans = tested on: Candida albicans
Experimental: as §1

Measured: inhibition activity (in words)

CC1(C)CC(=O)C2=C(C1)N(CCc1ccccc1)C1=C(C(=O)CC(C)(C)C1)C2c1cccnc1O [9-(2-hydroxypyridin-3-yl)-10-(2-phenylethyl)-3,3,6,6-tetramethyl-3,4,6,7,9,10-hexahydroacridine1,8(2H,5H)-dione]
highest inhibition activity: all assays above
